According to patent publication US11530210B2, “Substituted heteroaromatic pyrazolo-pyridines and their use as GLUN2B receptor modulators” (JANSSEN PHARMACEUTICA NV, priority 2019, dated 2022):
pIC50: −log10 of the molar value.

Tests used:
[1] = target: T1, human GluN1/GluN2B NMDA receptors (Homo sapiens, UniProt Q13224); assay: Calcium flux (FLIPR) assay on cloned human NR1/GluN2B ion channels expressed in mammalian cells (standard and HTS variants); format: cell-based; conditions: cells expressing human GluN1/GluN2B, glutamate and glycine co-agonists
T1 construct: expressed in transfected cells
Summary of the method: (§1)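 Tet-On-induced stable cell line loaded with Calcium 5 dye; compounds applied 5 min (agonist check), then glutamate at ~EC40 plus 10 μM glycine for 5 min. Buffer pH 7.4 with 0.5 mM MgCl2 in dye loading (standard) or 1.5 mM (HTS). FLIPR fluorescence normalized to control wells; (+)MK-801 as antagonist control.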

[2] = Liver microsomal stability (extraction ratio); format: in vitro ADME, mouse, rat, and human; conditions: test compound 1 μM, 0.5 mg/mL liver microsomes, NADPH 1 mM, 37° C.; ER = predicted hepatic clearance / species blood flow; species not given
Description: Protocol for Liver Microsomal Stability (Extraction Ratio)
Liver Microsomal Stability. Microsomal stability studies (Chrovian et al, “1H-Pyrrolo[3,2-b]pyridine GluN2B-Selective Negative Allosteric Modulators”. ACS Med Chem Lett. 2019 Jan. 10; 10(3):261-266) were conducted on a Biomek® FX Robotic Liquid Handling Workstation (Beckman Coulter, Brea, Calif.), which consists of a 96-channel pipette head, a 12-postion workstation deck, and a plate incubator. Test compounds (1 μm) were spiked in a reaction mix consisting of 100 mM potassium phosphate buffer (pH 7.4), 3 mM MgCl2, and 0.5 mg/mL liver microsomes from mouse, rat, and human (BD Gentest). The reaction was brought to 37° C. and initiated by adding NADPH to a final concentration of 1 mM. After mixing on the platedeck, 50 µL aliquots were excised from the reaction plate at 0, 5, 10, 20, 40, and 60 min and quenched with four volumes of acetonitrile spiked with […] of the internal standard phenytoin. Quenched plates were centrifuged at 5700 rpm for 10 min at 4° C., and supernatant was diluted 1:3 in water before LC/MS/MS analysis. The compound half-lives were derived from plots of the ln of percent remaining compound over time to determine the intrinsic clearance. The predicted hepatic clearance was derived from the intrinsic clearance value using equations from the well-stirred model (Current Drug Metabolism, 2008, 9, 940-951), where no correction was made plasma protein binding and the blood to plasma concentration ratio was assumed to be one.

[3] = target: T2, human GluN1/GluN2B NMDA receptors (Homo sapiens, UniProt Q05586+Q13224); assay: Calcium flux (FLIPR) assay on cloned human NR1/GluN2B ion channels expressed in mammalian cells (standard and HTS variants); format: cell-based; conditions: cells expressing human GluN1/GluN2B, glutamate and glycine co-agonists
T2 construct: expressed in transfected cells
Summary of the method: as §1

T2 sequence (Q13224 27-1484, other chains not shown): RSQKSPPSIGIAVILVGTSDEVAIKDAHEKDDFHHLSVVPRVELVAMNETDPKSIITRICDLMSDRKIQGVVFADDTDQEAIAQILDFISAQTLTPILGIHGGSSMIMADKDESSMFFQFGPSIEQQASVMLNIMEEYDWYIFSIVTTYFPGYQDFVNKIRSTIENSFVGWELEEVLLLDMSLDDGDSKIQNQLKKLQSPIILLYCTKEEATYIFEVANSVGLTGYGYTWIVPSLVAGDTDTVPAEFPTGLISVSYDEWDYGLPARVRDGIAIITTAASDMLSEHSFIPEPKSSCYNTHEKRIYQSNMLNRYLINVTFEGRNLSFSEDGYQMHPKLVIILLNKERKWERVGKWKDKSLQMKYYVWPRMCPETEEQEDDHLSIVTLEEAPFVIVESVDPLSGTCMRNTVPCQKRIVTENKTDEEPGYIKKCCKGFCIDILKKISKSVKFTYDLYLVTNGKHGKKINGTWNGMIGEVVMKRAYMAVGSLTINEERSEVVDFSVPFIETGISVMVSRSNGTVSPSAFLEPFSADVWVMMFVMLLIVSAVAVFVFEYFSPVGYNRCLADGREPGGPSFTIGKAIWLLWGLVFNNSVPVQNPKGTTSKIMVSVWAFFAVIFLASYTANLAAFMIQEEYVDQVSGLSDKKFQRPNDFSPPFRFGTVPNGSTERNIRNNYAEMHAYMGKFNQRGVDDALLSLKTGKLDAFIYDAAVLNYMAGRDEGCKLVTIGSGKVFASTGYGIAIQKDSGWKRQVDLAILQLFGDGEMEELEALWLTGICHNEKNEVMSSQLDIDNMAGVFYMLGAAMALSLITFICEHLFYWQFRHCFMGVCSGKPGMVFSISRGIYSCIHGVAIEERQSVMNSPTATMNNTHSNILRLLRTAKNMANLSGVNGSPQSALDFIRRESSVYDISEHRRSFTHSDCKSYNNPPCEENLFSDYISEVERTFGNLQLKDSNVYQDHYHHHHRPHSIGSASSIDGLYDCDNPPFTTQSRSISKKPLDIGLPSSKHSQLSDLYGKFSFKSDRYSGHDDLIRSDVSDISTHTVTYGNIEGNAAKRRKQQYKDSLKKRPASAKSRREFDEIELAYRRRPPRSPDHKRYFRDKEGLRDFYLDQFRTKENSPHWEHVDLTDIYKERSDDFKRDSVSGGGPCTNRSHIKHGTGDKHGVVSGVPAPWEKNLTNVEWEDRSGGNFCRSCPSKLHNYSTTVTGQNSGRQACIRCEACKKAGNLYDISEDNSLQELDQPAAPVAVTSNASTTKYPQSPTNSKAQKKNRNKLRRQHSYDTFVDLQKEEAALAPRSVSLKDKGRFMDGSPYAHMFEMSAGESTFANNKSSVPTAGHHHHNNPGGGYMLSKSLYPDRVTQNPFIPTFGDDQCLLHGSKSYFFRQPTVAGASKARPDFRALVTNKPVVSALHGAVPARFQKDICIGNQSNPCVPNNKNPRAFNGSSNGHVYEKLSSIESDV
T1 sequence (Q13224 27-1484, other chains not shown): as above

Row | Structure (SMILES) | pIC50 [1] | Extraction Ratio @ 1 μM [2] | pIC50 [3]
1 | Cc1nnc(Cn2ncc3ncc(-c4ccc(F)c(C(F)F)c4)cc32)o1 [Example 10, 2-[[6-[3-(Difluoromethyl)-4-fluoro-phenyl]pyrazolo[4,3-b]pyridin-1-yl]methyl]-5-methyl-1,3,4-oxadiazole] | 7.72 | 0.31 | –
2 | CC(F)(F)c1cccc(-c2cnc3cnn(Cc4cccnc4)c3c2)c1 [Example 12, 6-[3-(1,1-Difluoroethyl)phenyl]-1-(3-pyridylmethyl)pyrazolo[4,3-b]pyridine] | – | – | 7.59
3 | CC(F)(F)c1cc(-c2cnc3cnn(Cc4cn[nH]c4)c3c2)ccc1F [Example 40, 6-[3-(1,1-Difluoroethyl)-4-fluoro-phenyl]-1-(1H-pyrazol-4-ylmethyl)pyrazolo[4,3-b]pyridine] | – | – | 6.08
4 | Cc1nnc(Cn2nc(F)c3ncc(-c4ccc(F)c(C(F)F)c4)cc32)o1 [Example 96, 2-[[6-[3-(Difluoromethyl)-4-fluoro-phenyl]-3-fluoro-pyrazolo[4,3-b]pyridin-1-yl]methyl]-5-methyl-1,3,4-oxadiazole] | 7.42 | <0.298 | –
5 | Cc1nc(Cn2ncc3ncc(-c4ccc(F)c(C(F)F)c4)cc32)no1 [Example 97, 3-[[6-[3-(Difluoromethyl)-4-fluoro-phenyl]pyrazolo[4,3-b]pyridin-1-yl]methyl]-5-methyl-1,2,4-oxadiazole] | 7.39 | 0.42 | –
6 | Cc1nnc(Cn2ncc3ncc(-c4ccc(F)c(C(F)F)c4)cc32)s1 [Example 122, 2-[[6-[3-(Difluoromethyl)-4-fluoro-phenyl]pyrazolo[4,3-b]pyridin-1-yl]methyl]-5-methyl-1,3,4-thiadiazole] | 7.74 | 0.60 | –
7 | COc1nnc(Cn2ncc3ncc(-c4ccc(F)c(OC(F)F)c4)cc32)s1 [Example 134, 2-[[6-[3-(difluoromethoxy)-4-fluoro-phenyl]pyrazolo[4,3-b]pyridin-1-yl]methyl]-5-methoxy-1,3,4-thiadiazole] | – | – | 5.88
8 | FC(F)Oc1cc(-c2cnc3cnn(Cc4cncnc4)c3c2)ccc1Cl [Example 279, 6-[4-Chloro-3-(difluoromethoxy)phenyl]-1-(pyrimidin-5-ylmethyl)pyrazolo[4,3-b]pyridine] | 7.05 | – | –
9 | Cc1cc(Cn2ncc3ncc(-c4ccc(F)c(OC(F)F)c4)cc32)ncn1 [Example 281, 6-[3-(Difluoromethoxy)-4-fluoro-phenyl]-1-[(6-methylpyrimidin-4-yl)methyl]pyrazolo[4,3-b]pyridine] | 6.01 | – | –
10 | Cc1nccc(Cn2ncc3ncc(-c4cccc(C(F)(F)F)c4)cc32)n1 [Example 283, 1-[(2-Methylpyrimidin-4-yl)methyl]-6-[3-(trifluoromethyl)phenyl]pyrazolo[4,3-b]pyridine] | 5.49 | – | –
11 | Cc1nccc(Cn2ncc3ncc(-c4ccc(F)c(OC(F)F)c4)cc32)n1 [Example 284, 6-[3-(Difluoromethoxy)-4-fluoro-phenyl]-1-[(2-methylpyrimidin-4-yl)methyl]pyrazolo[4,3-b]pyridine] | 6.03 | – | –
12 | Cc1ncc(Cn2ncc3ncc(-c4ccc(F)c(F)c4)cc32)cn1 [Example 285, 6-(3,4-Difluorophenyl)-1-[(2-methylpyrimidin-5-yl)methyl]pyrazolo[4,3-b]pyridine] | < 5.00 | – | –
13 | Cc1ncc(Cn2ncc3ncc(-c4ccc(Cl)c(C)c4)cc32)cn1 [Example 286, 6-(4-Chloro-3-methyl-phenyl)-1-[(2-methylpyrimidin-5-yl)methyl]pyrazolo[4,3-b]pyridine] | 5.52 | – | –
14 | Cc1cnc(Cn2ncc3ncc(-c4cccc(C(F)(F)F)c4)cc32)nc1 [Example 287, 1-[(5-Methylpyrimidin-2-yl)methyl]-6-[3-(trifluoromethyl)phenyl]pyrazolo[4,3-b]pyridine] | 5.49 | – | –
15 | COc1cc(Cn2ncc3ncc(-c4ccc(F)c(OC(F)F)c4)cc32)ncn1 [Example 289, 6-[3-(Difluoromethoxy)-4-fluoro-phenyl]-1-[(6-methoxypyrimidin-4-yl)methyl]pyrazolo[4,3-b]pyridine] | 6.46 | – | –
16 | COc1nccc(Cn2ncc3ncc(-c4ccc(F)c(C(F)F)c4)cc32)n1 [Example 290, 6-[3-(Difluoromethyl)-4-fluoro-phenyl]-1-[(2-methoxypyrimidin-4-yl)methyl]pyrazolo[4,3-b]pyridine] | 6.49 | – | –
17 | COc1nccc(Cn2ncc3ncc(-c4ccc(F)c(OC(F)F)c4)cc32)n1 [Example 291, 6-[3-(Difluoromethoxy)-4-fluoro-phenyl]-1-[(2-methoxypyrimidin-4-yl)methyl]pyrazolo[4,3-b]pyridine] | 6.03 | – | –
18 | OCc1nnc(Cn2ncc3ncc(-c4ccc(F)c(C(F)F)c4)cc32)o1 [Example 292, (5-((6-(3-(Difluoromethyl)-4-fluorophenyl)-1H-pyrazolo[4,3-b]pyridin-1-yl)methyl)-1,3,4-oxadiazol-2-yl)methanol] | 6.77 | – | –
19 | Cc1nnc(Cn2ncc3ncc(-c4ccc(F)c(C(=O)O)c4)cc32)o1 [Example 293, 2-Fluoro-5-(1-((5-methyl-1,3,4-oxadiazol-2-yl)methyl)-1H-pyrazolo[4,3-b]pyridin-6-yl)benzoic acid] | < 5.00 | – | –
20 | [2H]c1nn(Cc2nnc(C)o2)c2cc(-c3ccc(F)c(C(F)F)c3)cnc12 [compound 297, 2-[[3-Deuterio-6-[3-(difluoromethyl)-4-fluoro-phenyl]pyrazolo [4,3-b]pyridin-1-yl]methyl]-5-methyl-1,3,4-oxadiazole] | – | – | 7.62

Other lines, results leading:

Row | pIC50 [1] | Extraction Ratio @ 1 μM [2] | pIC50 [3] | Structure (SMILES)
21 | 7.55 | 0.68 | – | Cc1cnc(Cn2ncc3ncc(-c4ccc(F)c(C(F)F)c4)cc32)o1 [Example 8, 2-[[6-[3-(Difluoromethyl)-4-fluoro-phenyl]pyrazolo[4,3-b]pyridin-1-yl]methyl]-5-methyl-oxazole]
22 | 7.66 | 0.69 | – | Cc1cc(Cn2ncc3ncc(-c4ccc(F)c(C(F)F)c4)cc32)on1 [Example 52, 5-[[6-[3-(Difluoromethyl)-4-fluoro-phenyl]pyrazolo[4,3-b]pyridin-1-yl]methyl]-3-methyl-isoxazole]
23 | 8.10 | 0.65 | – | Fc1ccc(-c2cnc3cnn(Cc4cccnc4)c3c2)cc1C(F)F [Example 198, 6-[3-(Difluoromethyl)-4-fluoro-phenyl]-1-(3-pyridylmethyl)pyrazolo[4,3-b]pyridine]
24 | 7.85 | 0.57 | – | Fc1cncc(Cn2ncc3ncc(-c4ccc(F)c(C(F)F)c4)cc32)c1 [Example 202, 6-[3-(Difluoromethyl)-4-fluoro-phenyl]-1-[(5-fluoro-3-pyridyl)methyl]pyrazolo[4,3-b]pyridine]
25 | 7.64 | <0.298 | – | Fc1ccc(-c2cnc3cnn(Cc4cccnn4)c3c2)cc1C(F)F [Example 261, 6-[3-(Difluoromethyl)-4-fluoro-phenyl]-1-(pyridazin-3-ylmethyl)pyrazolo[4,3-b]pyridine]
26 | 7.92 | 0.36 | – | Fc1ccc(-c2cnc3cnn(Cc4cncnc4)c3c2)cc1C(F)F [Example 275, 6-[3-(Difluoromethyl)-4-fluoro-phenyl]-1-(pyrimidin-5-ylmethyl)pyrazolo[4,3-b]pyridine]
27 | 6.65 | – | – | Cc1cc(Cn2ncc3ncc(-c4ccc(F)c(C(F)F)c4)cc32)ncn1 [Example 280, 6-[3-(Difluoromethyl)-4-fluoro-phenyl]-1-[(6-methylpyrimidin-4-yl)methyl]pyrazolo[4,3-b]pyridine]
28 | 6.41 | – | – | Cc1nccc(Cn2ncc3ncc(-c4ccc(F)c(C(F)F)c4)cc32)n1 [Example 282, 6-[3-(Difluoromethyl)-4-fluoro-phenyl]-1-[(2-methylpyrimidin-4-yl)methyl]pyrazolo[4,3-b]pyridine]
29 | 6.74 | – | – | COc1cc(Cn2ncc3ncc(-c4ccc(F)c(C(F)F)c4)cc32)ncn1 [Example 288, 6-[3-(Difluoromethyl)-4-fluoro-phenyl]-1-[(6-methoxypyrimidin-4-yl)methyl]pyrazolo[4,3-b]pyridine]
